Patent US9242998B2, “Tetracyclic heterocycle compounds and methods of use thereof for the treatment of hepatitis C” (priority 2013, dated 2016)

How the values were obtained:
HCV genotype 1a replicon = assay: HCV replicon assay, genotype 1a (cell ELISA for replicon-encoded NS3/4A); format: cell-based; conditions: Hepatitis C virus, 96 h, read-out: 1a IC50
Method: (§1) Measurement of inhibition by compounds was performed using the HCV replicon system. Several different replicons encoding different HCV genotypes or mutations were used. In addition, potency measurements were made using different formats of the replicon assay, including different ways of measurements and different plating formats. See Jan M. Vrolijk et al., A replicons-based bioassay for the measurement of interferons in patients with chronic hepatitis C, 110 J. V[…] 201 (2003); Steven S. Carroll et al., Inhibition of Hepatitis C Virus RNA Replication by 2′-Modified Nucleoside Analogs, 278(14) J. BIOLOGICAL CHEMISTRY 11979 (2003). However, the underlying principles are common to all of these determinations, and are outlined below.
(§2) Stable neomycin phosphotransferase encoding replicons-harboring cell lines were used, so all cell lines were maintained under G418 selection prior to the assay. Potency was determined using a cell ELISA assay with an antibody to the replicons encoded NS3/4a protease. See Caterina Trozzi et al., In Vitro Selection and Characterization of Hepatitis C Virus Serine Protease Variants Resistant to an Active-Site Peptide Inhibitor, 77(6) J. Virol. 3669 (2003). To initiate an assay, replicon cells were plated in the presence of a dilution series of test compound in the absence of G418. Typically, the assays were performed in a 96-well plate formate for manual operation, or a 384-well plate format for automated assay. Replicon cells and compound were incubated for 96 hours. At the end of the assay, cells were washed free of media and compound, and the cells were then lysed. RNA was quantified indirectly through detection of replicon-encoded NS3/4A protein levels, through an ELISA-based assay with an antibody specific for NS3/4A. IC50 determinations were calculated as a percentage of a DMSO control by fitting the data to a four-parameter fit function and the data obtained is provided in the table below.
(§3) Data for selected compounds of the present invention was obtained for genotypes 1a and 1b using this method and is provided in the table below: […]

HCV genotype 1b replicon = assay: HCV replicon assay, genotype 1b (cell ELISA for replicon-encoded NS3/4A); format: cell-based; conditions: Hepatitis C virus, 96 h, read-out: 1b IC50
Method: as §1, §2, §3

Row | SMILES | IC50 (HCV genotype 1a replicon) [nM] | IC50 (HCV genotype 1b replicon) [nM]
1 | CNC(=O)c1c(-c2ccc(OC(F)(F)F)cc2)oc2cc(N(C)S(C)(=O)=O)c(-c3ccc4c(n3)-c3cc5c(F)cccc5n3CO4)cc12 [Compound 33] | 50 | 2.5
2 | CNC(=O)c1c(-c2ccc(C)nc2)oc2cc(N(C)S(C)(=O)=O)c(-c3ccc4c(n3)-c3cc5c(F)cccc5n3CO4)cc12 [Compound 7] | 8.5 | 13
3 | CNC(=O)c1c(C2CC2)oc2cc(N(C)S(C)(=O)=O)c(-c3ccc4c(n3)-c3cc5c(F)cccc5n3CO4)cc12 [Compound 2] | 13 | 12
4 | CNC(=O)c1c(-c2cnn(C)c2)oc2cc(N(C)S(C)(=O)=O)c(-c3ccc4c(n3)-c3cc5c(F)cccc5n3CO4)cc12 [Compound 5] | 4.4 | 7.5
5 | CNC(=O)c1c(N2CCOCC2)oc2cc(N(C)S(C)(=O)=O)c(-c3ccc4c(n3)-c3cc5c(F)cccc5n3CO4)cc12 [Compound 42, 5-(11-fluoro-6H-pyrido[2′,3′:5,6][1,3]oxazino[3,4-a]indol-2-yl)-N-methyl-6-(N-methylmethylsulfonamido)-2-morpholinobenzofuran-3-carboxamide] | 85 | 35
6 | CNC(=O)c1c(-c2cccnc2O)oc2cc(N(C)S(C)(=O)=O)c(-c3ccc4c(n3)-c3cc5c(F)cccc5n3CO4)cc12 [Compound 17, 5-(11-fluoro-6H-pyrido[2′,3′:5,6][1,3]oxazino[3,4-a]indol-2-yl)-2-(2-hydroxypyridin-3-yl)-N-methyl-6-(N-methylmethylsulfonamido)benzofuran-3-carboxamide] | 324 | 393
7 | CNC(=O)c1c(C2CC2(C)C)oc2cc(N(C)S(C)(=O)=O)c(-c3ccc4c(n3)-c3cc5c(F)cccc5n3CO4)cc12 (stereo not shown) [Compound 49] | 27 | 22
8 | CNC(=O)c1c(C2CC2(F)F)oc2cc(N(C)S(C)(=O)=O)c(-c3ccc4c(n3)-c3cc5c(F)cccc5n3CO4)cc12 (stereo not shown) [Compound 50, 2-(2,2-difluorocyclopropyl)-5-(11-fluoro-6H-pyrido[2′,3′:5,6][1,3]oxazino[3,4-a]indol-2-yl)-N-methyl-6-(N-methylmethylsulfonamido)benzofuran-3-carboxamide] | 22 | 38
9 | CNC(=O)c1c(C=C(C)C)oc2cc(N(C)S(C)(=O)=O)c(-c3ccc4c(n3)-c3cc5c(F)cccc5n3CO4)cc12 [Compound 3] | 3.6 | 5.8
10 | CNC(=O)c1c(-n2cccn2)oc2cc(N(C)S(C)(=O)=O)c(-c3ccc4c(n3)-c3cc5c(F)cccc5n3CO4)cc12 [Compound 40] | 16 | 22
11 | CNC(=O)c1c(/C(C)=N/OC)oc2cc(N(C)S(C)(=O)=O)c(-c3ccc4c(n3)-c3cc5c(F)cccc5n3CO4)cc12 [Compound 59, 5-(11-fluoro-6H-pyrido[2′,3′:5,6][1,3]oxazino[3,4-a]indol-2-yl)-2-(1-(methoxyimino)ethyl)-N-methyl-6-(N-methylmethylsulfonamido)benzofuran-3-carboxamide] | 34 | 13
12 | CNC(=O)c1c(-c2ccc(OC)nc2)oc2cc(N(C)S(C)(=O)=O)c(-c3ccc4c(n3)-c3cc5c(F)cccc5n3C(CO)O4)cc12 (single isomer, unassigned) [Compound 21, (S or R)-5-(11-fluoro-6-(hydroxymethyl)-6H-pyrido[2′,3′:5,6][1,3]oxazino[3,4-a]indol-2-yl)-2-(6-methoxypyridin-3-yl)-N-methyl-6-(N-methylmethylsulfonamido)benzofuran-3-carboxamide] | 2.4 | 2.8
13 | CNC(=O)c1c(-c2ccc(F)cn2)oc2cc(N(C)S(C)(=O)=O)c(-c3ccc4c(n3)-c3cc5c(F)cccc5n3CO4)cc12 [Compound 30] | 11 | 25
14 | CNC(=O)c1c(-c2ccc(OC(F)F)nc2)oc2cc(N(C)S(C)(=O)=O)c(-c3ccc4c(n3)-c3cc5c(F)cccc5n3CO4)cc12 [Compound 25, 2-(6-(difluoromethoxy)pyridin-3-yl)-5-(11-fluoro-6H-pyrido[2′,3′:5,6][1,3]oxazino[3,4-a]indol-2-yl)-N-methyl-6-(N-methylmethylsulfonamido)benzofuran-3-carboxamide] | 3 | 5
15 | CNC(=O)c1c(-c2ccc(OC)nc2)oc2cc(N(C)S(C)(=O)=O)c(-c3ccc4c(n3)-c3cc5c(F)cccc5n3CO4)cc12 [Compound 11] | 7.2 | 8.4
16 | CNC(=O)c1c(C2=CCSCC2)oc2cc(N(C)S(C)(=O)=O)c(-c3ccc4c(n3)-c3cc5c(F)cccc5n3CO4)cc12 [Compound 32, 2-(3,6-dihydro-2H-thiopyran-4-yl)-5-(11-fluoro-6H-pyrido[2′,3′:5,6][1,3]oxazino[3,4-a]indol-2-yl)-N-methyl-6-(N-methylmethylsulfonamido)benzofuran-3-carboxamide] | 36 | 14

Row | SMILES | IC50 (HCV genotype 1a replicon) [nM] | IC50 (HCV genotype 1b replicon) [nM]
17 | CNC(=O)c1c(-n2ccnc2)oc2cc(N(C)S(C)(=O)=O)c(-c3ccc4c(n3)-c3cc5c(F)cccc5n3CO4)cc12 [Compound 36, 5-(11-fluoro-6H-pyrido[2′,3′:5,6][1,3]oxazino[3,4-a]indol-2-yl)-2-(1H-imidazol-1-yl)-N-methyl-6-(N-methylmethylsulfonamido)benzofuran-3-carboxamide] | 14 | 20
18 | CNC(=O)c1c(C2CC2)oc2cc(N(C)S(C)(=O)=O)c(-c3ncc4c(n3)-c3cc5c(F)cccc5n3CO4)cc12 [Compound 53] | 33 | 30
19 | CNC(=O)c1oc2cc(N(C)S(C)(=O)=O)c(-c3ccc4c(n3)-c3cc5c(F)cccc5n3CO4)cc2c1C(=O)NC [Compound 54, 5-(11-fluoro-6H-pyrido[2′,3′:5,6][1,3]oxazino[3,4-a]indol-2-yl)-N2,N3-dimethyl-6-(N-methylmethylsulfonamido)benzofuran-2,3-dicarboxamide] | 4.3 | 7.1
20 | CNC(=O)c1c(-c2ccn(C)c(=O)c2)oc2cc(N(C)S(C)(=O)=O)c(-c3ccc4c(n3)-c3cc5c(F)cccc5n3CO4)cc12 [Compound 18, 5-(11-fluoro-6H-pyrido[2′,3′:5,6][1,3]oxazino[3,4-a]indol-2-yl)-N-methyl-2-(1-methyl-2-oxo-1,2-dihydropyridin-4-yl)-6-(N-methylmethylsulfonamido)benzofuran-3-carboxamide] | 57 | 29
21 | CNC(=O)c1c(-c2ccc(F)nc2)oc2cc(N(C)S(C)(=O)=O)c(-c3ccc4c(n3)-c3cc5c(F)cccc5n3CO4)cc12 [Compound 4] | 3 | 6.1
22 | CNC(=O)c1c(-n2ccccc2=O)oc2cc(N(C)S(C)(=O)=O)c(-c3ccc4c(n3)-c3cc5c(F)cccc5n3CO4)cc12 [Compound 37] | 2.2 | 3
23 | CNC(=O)c1c(-c2ccc(C(F)(F)F)cc2)oc2cc(N(C)S(C)(=O)=O)c(-c3ccc4c(n3)-c3cc5c(F)cccc5n3CO4)cc12 [Compound 8] | 6.3 | 4.5
24 | CNC(=O)c1c(C2=CCCC2)oc2cc(N(C)S(C)(=O)=O)c(-c3ccc4c(n3)-c3cc5ccccc5n3CO4)cc12 [Compound 44, 2-(cyclopent-1-en-1-yl)-N-methyl-6-(N-methylmethylsulfonamido)-5-(6H-pyrido[2′,3′:5,6][1,3]oxazino[3,4-a]indol-2-yl)benzofuran-3-carboxamide] | 6.2 | 8.3
25 | CCOc1ccc(-c2oc3cc(N(C)S(C)(=O)=O)c(-c4ccc5c(n4)-c4cc6c(F)cccc6n4CO5)cc3c2C(=O)NC)cn1 [Compound 6] | 17 | 12
26 | CNC(=O)c1c(C(=O)N2CCOCC2)oc2cc(N(C)S(C)(=O)=O)c(-c3ccc4c(n3)-c3cc5c(F)cccc5n3CO4)cc12 [Compound 57] | 232 | 135
27 | CNC(=O)c1c(N2CCOC2=O)oc2cc(N(C)S(C)(=O)=O)c(-c3ccc4c(n3)-c3cc5c(F)cccc5n3CO4)cc12 [Compound 43] | 21 | 50
28 | CNC(=O)c1c(C2=CCCC2)oc2cc(N(C)S(C)(=O)=O)c(-c3ccc4c(n3)-c3cc5c(F)cccc5n3CO4)cc12 [Compound 45] | 6.1 | 6.4
29 | CNC(=O)c1c(-c2ccc(C(F)(F)F)cn2)oc2cc(N(C)S(C)(=O)=O)c(-c3ccc4c(n3)-c3cc5c(F)cccc5n3CO4)cc12 [Compound 31] | 5.9 | 3.9
30 | CNC(=O)c1c(-c2ccc(C(F)F)nc2)oc2cc(N(C)S(C)(=O)=O)c(-c3ccc4c(n3)-c3cc5c(F)cccc5n3C(CO)O4)cc12 (stereo not shown) [Compound 22] | 3.5 | 2.5
31 | CNC(=O)c1c(-n2cc(C)cn2)oc2cc(N(C)S(C)(=O)=O)c(-c3ccc4c(n3)-c3cc5c(F)cccc5n3CO4)cc12 [Compound 39] | 48 | 67
32 | CNC(=O)c1c(C2=CCCC2)oc2cc(N(C)S(C)(=O)=O)c(-c3ncc4c(n3)-c3cc5ccccc5n3CO4)cc12 [Compound 46] | 15 | 13
